This note sets out measurements from paper PMC1874649 (Nucleic Acids Research, 2007).

In the series the test system is cyclin B1. It counts as cell-based. As to conditions: complexed with Pep-3, 2 µM, HeLa cells.

For “control HypNA-pPNA sequence harbouring two mutations: sequence derived from Cyc-B1a harbouring two mismatches, TGC CAT CAG GCT TAG AGG (antisense TGCCATCAGGCTTAGAGG; HypNA-pPNA backbone (hydroxyproline/phosphono PNA), pattern not given here)”, the “effect on cyclin B1 protein levels (control)” value is “no effect”.
